The NIST ThermoML archive (doi:10.1021/acs.jced.7b01125)
Numbers after ± are expanded uncertainties.

Test: xn = mol fraction of the nth substance listed
Settings: Gas, Buoyancy - hydrostatic balance with magnetic suspension - one sinker

[HH] [hydrogen] + C
Settings	mass density [kg/m3]
324.96 K, 10000 kPa, x2 = 0.9	58.331 ± 0.044
324.96 K, 11000 kPa, x2 = 0.4997	36.202 ± 0.047
324.96 K, 11001 kPa, x2 = 0.9	64.438 ± 0.045
324.96 K, 12002 kPa, x2 = 0.4997	39.381 ± 0.051
324.96 K, 12003 kPa, x2 = 0.9	70.531 ± 0.045
324.96 K, 12999 kPa, x2 = 0.4997	42.522 ± 0.053
324.96 K, 13002 kPa, x2 = 0.9	76.592 ± 0.046
324.96 K, 14000 kPa, x2 = 0.4997	45.642 ± 0.056
324.96 K, 14001 kPa, x2 = 0.9499	88.324 ± 0.048
324.96 K, 14003 kPa, x2 = 0.9	82.625 ± 0.047
324.96 K, 14998 kPa, x2 = 0.4997	48.72 ± 0.06
324.96 K, 15000 kPa, x2 = 0.9	88.578 ± 0.047
324.96 K, 15003 kPa, x2 = 0.9499	94.801 ± 0.049
324.96 K, 15999 kPa, x2 = 0.4997	51.775 ± 0.063
324.96 K, 16001 kPa, x2 = 0.9	94.491 ± 0.048
324.96 K, 16003 kPa, x2 = 0.9499	101.187 ± 0.05
324.96 K, 16999 kPa, x2 = 0.4997	54.795 ± 0.066
324.96 K, 16999 kPa, x2 = 0.9	100.301 ± 0.049
324.96 K, 17994 kPa, x2 = 0.4997	57.761 ± 0.069
324.96 K, 18000 kPa, x2 = 0.9499	113.635 ± 0.05
324.96 K, 18006 kPa, x2 = 0.9	106.065 ± 0.049
324.96 K, 19001 kPa, x2 = 0.9	111.659 ± 0.051
324.96 K, 19002 kPa, x2 = 0.4997	60.728 ± 0.072
324.96 K, 19004 kPa, x2 = 0.9499	119.703 ± 0.051
324.96 K, 19631 kPa, x2 = 0.4997	62.562 ± 0.075
324.96 K, 19902 kPa, x2 = 0.9	116.626 ± 0.051
324.96 K, 19924 kPa, x2 = 0.9499	125.148 ± 0.054
324.97 K, 999 kPa, x2 = 0.9499	5.733 ± 0.038
324.97 K, 1999 kPa, x2 = 0.9499	11.594 ± 0.039
324.97 K, 2985 kPa, x2 = 0.9499	17.488 ± 0.039
324.97 K, 3998 kPa, x2 = 0.9499	23.665 ± 0.041
324.97 K, 4999 kPa, x2 = 0.9499	29.867 ± 0.042
324.97 K, 5999 kPa, x2 = 0.9499	36.165 ± 0.042
324.97 K, 6999 kPa, x2 = 0.9499	42.544 ± 0.043
324.97 K, 7999 kPa, x2 = 0.9499	49.004 ± 0.044
324.97 K, 10000 kPa, x2 = 0.9499	62.076 ± 0.046
324.97 K, 11004 kPa, x2 = 0.9499	68.681 ± 0.046
324.97 K, 12002 kPa, x2 = 0.9499	75.249 ± 0.047
324.97 K, 13002 kPa, x2 = 0.9499	81.811 ± 0.048
324.97 K, 17001 kPa, x2 = 0.9499	107.464 ± 0.049
349.95 K, 999 kPa, x2 = 0.9	5.061 ± 0.035
349.95 K, 999 kPa, x2 = 0.9499	5.309 ± 0.036
349.95 K, 1003 kPa, x2 = 0.4997	3.109 ± 0.029
349.95 K, 1999 kPa, x2 = 0.9	10.188 ± 0.035
349.95 K, 1999 kPa, x2 = 0.9499	10.702 ± 0.033
349.95 K, 2004 kPa, x2 = 0.4997	6.207 ± 0.029
349.95 K, 2985 kPa, x2 = 0.9	15.301 ± 0.036
349.95 K, 2999 kPa, x2 = 0.9499	16.173 ± 0.037
349.95 K, 3002 kPa, x2 = 0.4997	9.284 ± 0.03
349.95 K, 3999 kPa, x2 = 0.9	20.614 ± 0.037
349.95 K, 4000 kPa, x2 = 0.9499	21.712 ± 0.038
349.95 K, 4004 kPa, x2 = 0.4997	12.364 ± 0.031
349.95 K, 4999 kPa, x2 = 0.9	25.902 ± 0.038
349.95 K, 4999 kPa, x2 = 0.9499	27.309 ± 0.039
349.95 K, 5003 kPa, x2 = 0.4997	15.42 ± 0.032
349.95 K, 5998 kPa, x2 = 0.9	31.226 ± 0.039
349.95 K, 5998 kPa, x2 = 0.9499	32.957 ± 0.04
349.95 K, 6002 kPa, x2 = 0.4997	18.469 ± 0.034
349.95 K, 6998 kPa, x2 = 0.9	36.584 ± 0.039
349.95 K, 7000 kPa, x2 = 0.9499	38.671 ± 0.041
349.95 K, 7001 kPa, x2 = 0.4997	21.49 ± 0.036
349.95 K, 7998 kPa, x2 = 0.9499	44.399 ± 0.041
349.95 K, 7999 kPa, x2 = 0.9	41.97 ± 0.04
349.95 K, 8001 kPa, x2 = 0.4997	24.491 ± 0.037
349.95 K, 8997 kPa, x2 = 0.9	47.361 ± 0.041
349.95 K, 8997 kPa, x2 = 0.9499	50.163 ± 0.042
349.95 K, 9000 kPa, x2 = 0.4997	27.473 ± 0.039
349.95 K, 9996 kPa, x2 = 0.9499	55.938 ± 0.043
349.95 K, 9999 kPa, x2 = 0.4997	30.433 ± 0.042
349.95 K, 10000 kPa, x2 = 0.9	52.782 ± 0.041
349.95 K, 10999 kPa, x2 = 0.9499	61.741 ± 0.043
349.95 K, 11000 kPa, x2 = 0.9	58.181 ± 0.042
349.95 K, 11001 kPa, x2 = 0.4997	33.381 ± 0.044
349.95 K, 11995 kPa, x2 = 0.4997	36.281 ± 0.046
349.95 K, 11997 kPa, x2 = 0.9499	67.507 ± 0.044
349.95 K, 12003 kPa, x2 = 0.9	63.582 ± 0.042
349.95 K, 12996 kPa, x2 = 0.4997	39.178 ± 0.049
349.95 K, 12998 kPa, x2 = 0.9499	73.267 ± 0.044
349.95 K, 13000 kPa, x2 = 0.9	68.93 ± 0.043
349.95 K, 13993 kPa, x2 = 0.4997	42.035 ± 0.051
349.95 K, 13994 kPa, x2 = 0.9	74.229 ± 0.044
349.95 K, 13998 kPa, x2 = 0.9499	78.993 ± 0.044
349.95 K, 14997 kPa, x2 = 0.9499	84.669 ± 0.045
349.95 K, 14998 kPa, x2 = 0.9	79.534 ± 0.044
349.95 K, 15001 kPa, x2 = 0.4997	44.896 ± 0.054
349.95 K, 15997 kPa, x2 = 0.9	84.764 ± 0.045
349.95 K, 15998 kPa, x2 = 0.4997	47.697 ± 0.057
349.95 K, 15998 kPa, x2 = 0.9499	90.284 ± 0.045
349.95 K, 16997 kPa, x2 = 0.4997	50.454 ± 0.059
349.95 K, 16998 kPa, x2 = 0.9499	95.842 ± 0.046
349.95 K, 17000 kPa, x2 = 0.9	89.954 ± 0.045
349.95 K, 17989 kPa, x2 = 0.4997	53.192 ± 0.059
349.95 K, 17998 kPa, x2 = 0.9499	101.317 ± 0.047
349.95 K, 19002 kPa, x2 = 0.4997	55.94 ± 0.066
349.95 K, 19002 kPa, x2 = 0.9499	106.734 ± 0.047
349.95 K, 19350 kPa, x2 = 0.9	101.832 ± 0.047
349.95 K, 19873 kPa, x2 = 0.9499	111.352 ± 0.047
349.95 K, 19933 kPa, x2 = 0.4997	58.441 ± 0.066
